The source of these data is patent US8779154B2, “Fused ring compounds for inflammation and immune-related uses” (priority 2006, dated 2014).

For orientation: IC50 means the concentration needed to halve the response being measured. A high value points to lower potency.

Molecules are shown by their SMILES. Bounds are passed on as bounds.

The first assay concerns IL-2 production. The assay can be described thus: Inhibition of IL-2 production in PHA-activated Jurkat cells (ELISA). Type of assay: cell-based. Particulars: Homo sapiens, Jurkat, 20 h, PHA 2.5 μg/mL, IL-2 ELISA. As for the experimental part: Jurkat cells were placed in a 96 well plate (0.5 million cells per well in 1% FBS medium) then a test compound of this invention was added at different concentrations. After 10 minutes, the cells were activated with PHA (final concentration 2.5 μg/mL) and incubated for 20 hours at 37° C. under CO2. The final volume was 200 μL. Following incubation, the cells were centrifuged and the supernatants collected and stored at −70° C. prior to assaying for IL-2 production. A commercial ELISA kit (IL-2 Eli-pair, Diaclone Research, Besancon, France) was used to detect production of IL-2, from which dose response curves were obtained. The IC50 value was calculated as the concentration at which 50% of maximum IL-2 production after stimulation was inhibited versus a non-stimulation control.
In turn, `Fc1cccc(F)c1CN(Cc1c(F)cccc1F)c1ccc2c(c1)CCCc1cnc(-c3cccnc3)nc1-2` [Compound 103] had an IC50 above 1000 nM.
Compound `COc1cccc2c1CCCc1nc(NC(=O)c3ccncc3C)ncc1-2` [Compound 92] gave an IC50 above 1000 nM.
Still for that read-out and setting: then `O=C(Nc1ccc2c(c1)CCCc1sc(-c3cccnc3)nc1-2)c1c(F)cccc1F` [Compound 155], with 30 to 100 nM; and `COc1ccc2c(c1)-c1sc(C(=O)Nc3c(F)cccc3F)nc1CCO2` [Compound 33], with 100 to 250 nM.
For `O=C(Nc1nc2c(s1)-c1ccncc1CCC2)c1c(F)cccc1F` [Compound 87], the IC50 lay in the range of 30 to 100 nM.
The same measure, in the same setting: next, `C/N=C(/Nc1c(F)cccc1F)c1nc2c(s1)-c1cc(OC)ccc1CCC2` [Compound 145]: above 1000 nM; `CN1Cc2ccc(Br)cc2-c2sc(NC(=O)c3c(F)cccc3F)nc2C1` [Compound 138]: 250 to 500 nM; `COc1cccc2c1oc(=O)c1nc(NC(=O)c3c(F)cccc3F)sc12` [Compound 2]: above 1000 nM.
Still for that read-out and setting: then `COc1ccc2c(c1)CCCCc1nc(NC(=O)c3c(F)cccc3F)ncc1-2` [Compound 98], with above 1000 nM; and `O=C(Nc1c(F)cccc1F)c1nc2c(s1)-c1cc(-c3cnc[nH]3)ccc1CCC2` [Compound 131], with 500 to 1000 nM.
On the same count and under the same terms, then `O=C(Nc1c(F)cccc1F)c1nc2c(s1)-c1cc(-c3ccccn3)ccc1CCC2` [Compound 37], with at most 30 nM; and `N#Cc1cc2c(s1)CCCc1nc(NC(=O)c3c(F)cccc3F)sc1-2` [Compound 86], with above 1000 nM; and `O=C(Nc1c(F)cccc1F)c1nc2c(s1)-c1cc(Br)ccc1CCC2` [Compound 18], with 30 to 100 nM.
For the compound `COC(=O)c1ccc2c(c1)CCCc1nc(NC(=O)c3c(F)cccc3F)sc1-2` [Compound 73], the IC50 is 30 to 100 nM.
Same read-out and setting: then `O=C(Nc1nc2c(s1)-c1ccccc1CCC2)c1c(F)cccc1F` [Compound 16], with 250 to 500 nM; and `O=C(Nc1c(F)cccc1F)c1nc2c(s1)-c1cc(-c3ccnc(F)c3)ccc1CCC2` [Compound 118], with 100 to 250 nM.
On the same count and under the same terms, next, `O=C(Nc1nc2c(s1)-c1cccc(O)c1CCC2)c1c(F)cccc1F` [Compound 51]: 30 to 100 nM.
On the same count and under the same terms, next, `O=C(Nc1ncc2c(n1)CCCc1cnc(-c3cccnc3)nc1-2)c1c(F)cccc1F` [Compound 89]: 500 to 1000 nM.
For the compound `Fc1cccc(F)c1CNc1ccc2c(c1)CCCc1cnc(-c3cccnc3)nc1-2` [Compound 104], the IC50 was above 1000 nM.
Still for that read-out and setting: then `O=C(Nc1nc2c(s1)-c1ccc(-c3ncco3)cc1CCC2)c1c(F)cccc1F` [Compound 76], with 30 to 100 nM; and `COc1ccc2c(c1)-c1cnc(NC(=O)c3c(F)cccc3F)nc1CCC2` [Compound 93], with 500 to 1000 nM; and `COc1cccc2c1CCCc1nc(C(=O)Nc3ccncc3C)sc1-2` [Compound 11], with above 1000 nM.
Still for that read-out and setting: then `Cn1cncc1-c1ccc2c(c1)-c1sc(C(=O)Nc3c(F)cccc3F)nc1CCC2` [Compound 129], with at most 30 nM.
Still for that read-out and setting: next, `COc1ccc2c(c1)-c1sc(C(=N)Nc3c(F)cccc3F)nc1CCC2` [Compound 152]: 500 to 1000 nM; `O=C(Nc1nc2c(s1)-c1ccc(-c3nccs3)cc1CCC2)c1c(F)cccc1F` [Compound 75]: 100 to 250 nM.
`COc1ccc2c(c1)-c1sc(NC(=O)Nc3c(F)cccc3F)nc1CCC2` [Compound 154] registered an IC50 of 500 to 1000 nM.
Same read-out and setting: next, `Fc1cccc(F)c1NC(=S)c1nc2c(s1)-c1cc(-c3cnco3)ccc1CCC2` [Compound 148]: 30 to 100 nM; `COc1cccc2c1CCCc1nc(NC(=O)c3c(F)cccc3F)sc1-2` [Compound 12]: at most 30 nM; `N=C(Nc1c(F)cccc1F)c1nc2c(s1)-c1cc(-c3cnco3)ccc1CCC2` [Compound 153]: 250 to 500 nM.
Still for that read-out and setting: next, `COc1ccc2c(c1)CCCc1c-2ncc(NC(=O)c2c(F)cccc2F)[n+]1[O-]` [Compound 97]: 500 to 1000 nM; `O=C(Nc1nc2c(s1)-c1ccc(-c3nnn[nH]3)cc1CCC2)c1c(F)cccc1F` [Compound 77]: above 1000 nM.
Still for that read-out and setting: then `O=C(Nc1c(F)cccc1F)c1nc2c(s1)-c1cc(-c3cccnc3F)ccc1CCC2` [Compound 122], with at most 30 nM; and `O=C(Nc1c(F)cccc1F)c1nc2c(s1)-c1cc(-c3cncnc3)ccc1CCC2` [Compound 124], with 30 to 100 nM; and `Cn1nnnc1-c1ccc2c(c1)CCCc1nc(NC(=O)c3c(F)cccc3F)sc1-2` [Compound 78], with at most 30 nM.
In turn, `COc1cccc2c1CCCc1nc(NC(=O)c3c(F)cccc3F)ncc1-2` [Compound 91] showed an IC50 of 100 to 250 nM.
Still for that read-out and setting: then `O=C(Nc1c(F)cccc1F)c1nc2c(s1)-c1cc(O)ccc1CCC2` [Compound 32], with 30 to 100 nM; and `COc1ccc2c(c1)-c1sc(NC(=O)c3ccncc3F)nc1CCO2` [Compound 9], with above 1000 nM.
Same read-out and setting: then `Cc1csc(-c2cccc3c2CCCc2nc(NC(=O)c4c(F)cccc4F)sc2-3)n1` [Compound 71], with 250 to 500 nM.
With `COc1ccc(-c2ccc3c(c2)-c2sc(C(=O)Nc4c(F)cccc4F)nc2CCC3)cn1` [Compound 121], the IC50 is 250 to 500 nM.
On to `COc1ccc2c(c1)-c1sc(C(=O)Nc3c(F)cccc3F)nc1CCC2` [Compound 5], for which the IC50 was at most 30 nM.
In turn, `CN(C)c1cccc(F)c1C(=O)Nc1nc2c(s1)-c1cc(C#N)ccc1CCC2` [Compound 81] registered an IC50 of 500 to 1000 nM.
On the same count and under the same terms, next, `O=C(Nc1c(F)cccc1F)c1nc2c(s1)-c1cc(OC(=O)n3ccnc3)ccc1CCC2` [Compound 111]: 250 to 500 nM; `O=C(Nc1c(F)cccc1F)c1nc2c(s1)-c1cc(-c3ccc(O)nc3)ccc1CCC2` [Compound 117]: 100 to 250 nM; `O=C(Nc1nc2c(s1)-c1cccc(-c3nccs3)c1CCC2)c1c(F)cccc1F` [Compound 70]: 100 to 250 nM.
Same read-out and setting: next, `COC(=O)c1ccc2c(c1)-c1sc(C(=O)Nc3c(F)cccc3F)nc1CCC2` [Compound 38]: at most 30 nM; `COc1ccc2c(c1)-c1sc(NC(=O)c3c(F)cccc3F)nc1CCC2` [Compound 8]: 30 to 100 nM.

The assay is the same for the next values; noted with them: Homo sapiens, PHA 2.5 μg/mL, 20 hours, IL-2 ELISA.
As for `O=C(Nc1c(F)ccc([N+](=O)[O-])c1F)c1nc2c(s1)-c1ccc([N+](=O)[O-])cc1CCC2` [Compound 35], the IC50 is 100 to 250 nM.
